Data set [1] is described as follows: refractive index (Na D-line) (dimensionless). The settings on record: 298.15 K; 101.33 kPa; Liquid; Standard Abbe refractometry.
The conditions of data set [2]: 298.15 K; 101.33 kPa; Liquid; Vibrating tube method.
The nature of data set [3]: xn = mol fraction of the nth substance listed. The conditions noted are these: 298.15 K, 101 kPa, Liquid, Vibrating tube method.

Where “and” joins values, the source holds several entries; their conditions need not be identical. Identical values can stand only once. ± gives the expanded uncertainty stated by the source.

Consider `CCOS(=O)(=O)[O-].CCn1cc[n+](C)c1` [1-ethyl-3-methylimidazolium ethyl sulfate], for which, in data set [1], the refractive index is recorded as 1.4791 ± 0.00037. Also, the mass density in data set [2] was 1237.23 ± 0.43 kg/m3.
For the molecule `CCOS(=O)(=O)[O-].CCn1cc[n+](C)c1` [1-ethyl-3-methylimidazolium ethyl sulfate] + C1CCCCC1, the mass density in data set [3] (x2 = 0.027) came to 1230.94 ± 0.41 kg/m3.
Regarding `CCOS(=O)(=O)[O-].CCn1cc[n+](C)c1` [1-ethyl-3-methylimidazolium ethyl sulfate] + CC1CCCCC1, in data set [3] (x2 = 0.026), the mass density is reported as 1232.26 ± 0.42 kg/m3.
In the case of `CCOS(=O)(=O)[O-].CCn1cc[n+](C)c1` [1-ethyl-3-methylimidazolium ethyl sulfate] + CCc1ccccc1, the mass density in data set [3] (x2 = 0.124) is 1210.43 ± 0.35 kg/m3 and 1210.4 ± 0.35 kg/m3.
`C1CCCCC1` [cyclohexane]: the refractive index in data set [1] was 1.4236 ± 0.00031. For the same molecule, the mass density in data set [2] was 773.8 ± 0.13 kg/m3.
On the same counts, the results for `C1CCCCCCC1` [cyclooctane] are 1.45598 ± 0.00037 and 831.47 ± 0.24 kg/m3.
`C1CCCCCCC1` [cyclooctane] + CCOS(=O)(=O)[O-].CCn1cc[n+](C)c1: the mass density in data set [3] (x1 = 0.012) turned out to be 1232.65 ± 0.42 kg/m3.
For the molecule `CCc1ccccc1` [ethylbenzene], in data set [1], the refractive index is 1.49304 ± 0.00031. For the same molecule, the mass density in data set [2] came to 862.51 ± 0.11 kg/m3.
Turning to `CC1CCCCC1` [methylcyclohexane], the refractive index in data set [1] turned out to be 1.42062 ± 0.00031. Moreover, in data set [2], the mass density is on record as 765.02 ± 0.13 kg/m3.

Values taken from the NIST ThermoML archive (doi:10.1016/j.jct.2010.12.014).
